Measured values: the NIST ThermoML archive (doi:10.1021/acs.jced.8b00160)

Experiments:
[1] = refractive index (Na D-line) (dimensionless); wn = mass fraction of the nth substance listed; conditions: 100 kPa, Liquid, Standard Abbe refractometry
[2] = wn = mass fraction of the nth substance listed; conditions: 100 kPa, Liquid, Vibrating tube method
[3] = refractive index (Na D-line) (dimensionless); conditions: 100 kPa, Liquid, Standard Abbe refractometry

O=P([O-])([O-])O.[K+].[K+] [dipotassium hydrogen phosphate] + O
298.15 K
Conditions	mass density, [2] [kg/m3]	refractive index, [1]
w1 = 0.02	1014.3	1.336
w1 = 0.05	1040.9	1.3401
w1 = 0.1	1086.7	1.3478
w1 = 0.15	1134	1.3551
w1 = 0.2	1183.1	1.3626
w1 = 0.25	1234.3	1.3697
w1 = 0.3	1287.3	1.3774

CC(C)O [propan-2-ol] + O
Conditions	mass density, 298.15 K [kg/m3]	mass density, 308.15 K [kg/m3]	mass density, 318.15 K [kg/m3]	refractive index, 298.15 K	refractive index, 308.15 K	refractive index, 318.15 K
[1], w1 = 0.1	–	–	–	1.3418	1.3372	1.3356
[1], w1 = 0.2	–	–	–	1.3506	1.3475	1.3447
[1], w1 = 0.3	–	–	–	1.3573	1.3559	1.3531
[1], w1 = 0.4	–	–	–	1.3629	1.3623	1.3596
[1], w1 = 0.5	–	–	–	1.367	1.3668	1.3643
[1], w1 = 0.6	–	–	–	1.3705	1.3694	1.3679
[2], w1 = 0.1	979.9	976.9	973.7	–	–	–
[2], w1 = 0.2	966.6	958.7	954.8	–	–	–
[2], w1 = 0.3	946	941.9	934.4	–	–	–
[2], w1 = 0.4	925.7	916.8	911.5	–	–	–
[2], w1 = 0.5	901.7	896.2	887.6	–	–	–
[2], w1 = 0.6	879	871.6	862.4	–	–	–

O=P([O-])([O-])[O-].[K+].[K+].[K+] [tripotassium phosphate] + O
Conditions	mass density, 298.15 K [kg/m3]	mass density, 308.15 K [kg/m3]	mass density, 318.15 K [kg/m3]	refractive index, 298.15 K	refractive index, 308.15 K	refractive index, 318.15 K
[1], w1 = 0.02	–	–	–	1.3356	1.3346	1.3337
[1], w1 = 0.05	–	–	–	1.3413	1.3402	1.3386
[1], w1 = 0.1	–	–	–	1.3537	1.3512	1.3488
[1], w1 = 0.15	–	–	–	1.3651	1.3632	1.3606
[1], w1 = 0.2	–	–	–	1.3792	1.3768	1.3736
[1], w1 = 0.25	–	–	–	1.3962	1.3928	1.3885
[1], w1 = 0.3	–	–	–	1.418	1.4109	1.4029
[2], w1 = 0.02	1015.8	1011.9	1008.3	–	–	–
[2], w1 = 0.05	1048.6	1045	1040.4	–	–	–
[2], w1 = 0.1	1106.7	1102.7	1100.3	–	–	–
[2], w1 = 0.15	1176.8	1172.6	1171.1	–	–	–
[2], w1 = 0.2	1203.4	1199.8	1194.9	–	–	–
[2], w1 = 0.25	1226.9	1223.5	1218	–	–	–
[2], w1 = 0.3	1241.7	1237.1	1231.8	–	–	–

O [water]
[3]
Conditions	refractive index
298.15 K	1.3324
308.15 K	1.3302
318.15 K	1.3298
